Test results published in patent publication US5030628A, “N-aryl-azetidinones, their preparation process and their use as elastase inhibitors” (Scientifique, priority 1988, dated 1991).
Where two headings read alike, the source gives them in different places.

What was measured:
[1] = target: porcine pancreatic elastase (PPE) (Sus scrofa, UniProt P00772); test: Deactivation of porcine pancreatic elastase (PPE), Kitz and Wilson / Hart and O'Brian kinetics; format: biochemical; conditions: for Ki / kinact / kinact/KI: 37° C., pH 8, 0.1M tris buffer; for Ki / kinact: Kitz and Wilson (5a, 5c, 5e, 10a), Hart and O'Brian (5a, 5'a); for Ki: read-out: Ki (dissociation constant of the enzyme-inhibitor complex), PPE; for kinact: read-out: ki (first order constant for the formation of the deactivated enzyme), PPE; for kinact/KI: read-out: ki/Ki (apparent second order constant characterizing the deactivation), PPE
Protocol: (§1) All the kinetic measurements are carried out at 37° C. and at a pH of 8 with a 0.1M tris buffer (PPE) or a 0.1M tris buffer, Brij 0.01%, NaN3 0.02% (HLE) (pH 7.5 for compound 5d). The method of Hart and O'Brian was published in 1973 in Biochemistry, Vol. 12, pp. 2940-2945 and that of Kitz and Wilson in 1962 in J. Biol. Chem., Vol. 237, pp. 3245-3249. In this way the first order constant ki is determined for the formation of the deactivated enzyme and the dissociation constant Ki of the enzyme-inhibitor complex. The ki: Ki ratio is the apparent second order constant characterizing the deactivation.

[2] = target: T1, human leucocytic elastase (HLE) (Homo sapiens, UniProt P08246); test: Deactivation of human leucocytic elastase (HLE), Kitz and Wilson kinetics; format: biochemical; conditions: for Ki / kinact / kinact/KI: 37° C., Brij 0.01%, NaN3 0.02%, Kitz and Wilson; for Ki: read-out: Ki (dissociation constant of the enzyme-inhibitor complex), HLE; for kinact: read-out: ki (first order constant for the formation of the deactivated enzyme), HLE
T1 sequence (P08246 30-267): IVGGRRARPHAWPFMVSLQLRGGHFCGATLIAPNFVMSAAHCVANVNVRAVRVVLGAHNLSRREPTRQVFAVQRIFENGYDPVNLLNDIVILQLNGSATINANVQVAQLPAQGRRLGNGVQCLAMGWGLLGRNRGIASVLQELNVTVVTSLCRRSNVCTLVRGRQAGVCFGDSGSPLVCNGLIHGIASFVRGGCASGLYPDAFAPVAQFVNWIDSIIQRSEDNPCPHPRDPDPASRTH
Protocol: as §1

chymotrypsin = test: Test as chymotrypsin inhibitors under identical conditions; format: biochemical
Excerpt: (§2) The properties of the N-aryl-azetidinones obtained in examples 4, 5, 6, 7, 11, 17, 22 and 23 are checked and in particular their deactivation capacity for porcine pancreatic elastase (PPE) and human leucocytic elastase (HLE) using the methods of Kitz and Wilson for HLE in the case of compounds 5a, 5c, 5d, 5e, 5a' and 10a, the method of Kitz and Wilson for PPE in the case of compounds 5a, 5c, 5e and 10a and the method of Hart and O'Brian for PPE in the case of compounds 5a and 5'a. All the kinetic measurements are carried out at 37° C. and at a pH of 8 with a 0.1M tris buffer (PPE) or a 0.1M tris buffer, Brij 0.01%, NaN3 0.02% (HLE) (pH 7.5 for compound 5d).
(§3) On testing compounds 5, 5c, 5'a'under identical conditions as chymotrypsin or trypsin inhibitors, it can be seen that they have no action on these enzymes.

trypsin = test: Test as trypsin inhibitors under identical conditions; format: biochemical
Excerpt: as §2, §3

elastase [3] = test: Effect on the degradation of elastin by elastase; format: biochemical; conditions: for deactivation of elastase previously incubated with elastin: elastase previously incubated for 30 min. in the presence of an elastin excess (2mg)
Protocol: The effect of compound 5on the degradation of elastin, the natural substrate of elastase in the human organism was tested.

elastase [4] = test: Properties with respect to elastase (substrate or inhibitor); format: biochemical
Excerpt: Thus, the nature of the R^3 substituent has a significant influence on the properties of the product obtained.

[5] = Acute toxicity in male and female mice; conditions: mouse, in vivo
Protocol: The acute toxicity of compound 5a researched on male and female mice exceeds 200 mg/kg.

[6] = pH 8, 0.1M tris buffer, read-out: ki/Ki (apparent second order constant characterizing the deactivation), HLE

Sequence of porcine pancreatic elastase (PPE) (P00772 27-266): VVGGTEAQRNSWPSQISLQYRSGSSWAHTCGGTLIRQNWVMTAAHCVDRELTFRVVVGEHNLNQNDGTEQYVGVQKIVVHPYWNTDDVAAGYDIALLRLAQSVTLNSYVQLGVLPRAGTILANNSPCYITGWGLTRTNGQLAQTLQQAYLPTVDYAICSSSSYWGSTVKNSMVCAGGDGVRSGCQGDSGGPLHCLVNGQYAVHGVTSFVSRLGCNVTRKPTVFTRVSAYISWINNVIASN

SMILES	deactivation of PPE (in words) [1]	Ki [1]	kinact [1]	kinact/KI [1]	deactivation of HLE (in words) [2]	Ki ([2]; pH 8, 0.1M tris buffer)	kinact ([2]; pH 8, 0.1M tris buffer)	kinact/KI [2, 6]	action on chymotrypsin (chymotrypsin)	action on trypsin (trypsin)	deactivation of elastase previously incubated with elastin (elastase [3])	elastase inhibition (elastase [4])	elastase substrate (elastase [4])	capacity of treated elastase to degrade elastin (elastase [3]; elastase previously treated by the compound)	LD50 [5]	kinact/KI ([2]; pH 7.5 for compound 5d, 0.1M tris buffer, read-out: ki/Ki (apparent second order constant characterizing the deactivation), HLE, pH 7.5)
CS(=O)(=O)OCc1ccccc1N1CC(F)(F)C1=O [Compound 5c, N-(2-methanesulphonyloxymethylphenyl)-3,3-difluoro-2-azetidinone]	deactivate	48 µM	0.017 s⁻¹	354 M⁻¹ s⁻¹	deactivate	500 µM	0.05 s⁻¹	100 M⁻¹ s⁻¹	no action	no action	remain capable of deactivating elastase					
O=C1N(c2ccccc2CCl)CC1(F)Br (stereo not shown) [5'a, N-(2-chloromethylphenyl)-3-fluoro-3bromo-2-azetidinone]	deactivate	8.5 µM	0.048 s⁻¹	5650 M⁻¹ s⁻¹	deactivate	1170 µM	0.37 s⁻¹	316 M⁻¹ s⁻¹	no action	no action	remain capable of deactivating elastase					
O=C1N(c2ccccc2CCl)CC1(Cl)Cl [Compound 5e, N-(2-chloromethylphenyl)-3,3-di-chloro-2-azetidinone]		590 µM	0.028 s⁻¹	47 M⁻¹ s⁻¹		500 µM	0.03 s⁻¹	60 M⁻¹ s⁻¹								
O=C1N(c2ccccc2CF)CC1(F)F [Compound 5b, N-(2-fluoromethylphenyl)-3,3-difluoro-2-azetidinone]												not inhibitors	elastase substrates			
O=C1N(c2ccc(CCl)cc2)CC1(F)F [Compound 10a, N-(4-chloromethylphenyl)-3,3-difluoro-2-azetidinone]	deactivate	660 µM	0.075 s⁻¹	113 M⁻¹ s⁻¹	deactivate			~1.2 M⁻¹ s⁻¹								
O=C1N(c2ccc(CF)cc2)CC1(F)F [Compound 10b, N-(4-fluoromethylphenyl)-3,3-difluoro-2-azetidinone]												not inhibitors	elastase substrates			
O=C1N(c2ccccc2CCl)CC1(F)F [Compound 5a, N-(2-chloromethylphenyl)-3,3-difluoro-2-azetidinone]	deactivate	30 µM	0.031 s⁻¹	1030 M⁻¹ s⁻¹	deactivate	16.6 µM	0.005 s⁻¹	301 M⁻¹ s⁻¹	no action	no action	remain capable of deactivating elastase			lost its capacity to degrade elastin	> 200 mg/kg	
O=C1N(c2ccccc2CBr)CC1(F)F [Compound 5d, N-(2-bromomethylphenyl)-3,3-difluoro-2-azetidinone]																40 M⁻¹ s⁻¹
